Test results: ChEMBL document CHEMBL3885881, “DrugMatrix”

Species on record: Rattus norvegicus
Experiment: DrugMatrix - Regimen: Daily Repeat
Assay type: toxicity, organism-based, Sprague-Dawley
Parameters: regimen Daily Repeat, gender Male, age 6-8 weeks
Details: in vivo, po, route oral GAVAGE, […]; for ABSOLUTE BASOPHIL / ABSOLUTE EOSINOPHIL / ABSOLUTE LYMPHOCYTE / ABSOLUTE MONOCYTE / ABSOLUTE SEGMENTED NEUTROPHIL / BASOPHIL / EOSINOPHIL / ERYTHROCYTE COUNT / HEMATOCRIT / HEMOGLOBIN / LEUKOCYTE COUNT / LYMPHOCYTE / MEAN CORPUSCULAR HEMOGLOBIN / MEAN CORPUSCULAR HEMOGLOBIN CONCENTRATION / MONOCYTE / NEUTROPHIL / NUCLEATED RED BLOOD CELLS / PLATELET COUNT: tissue Blood; for ALANINE AMINOTRANSFERASE / ALBUMIN / ALKALINE PHOSPHATASE / ASPARTATE AMINOTRANSFERASE / BLOOD UREA NITROGEN / CARBON DIOXIDE / CHLORIDE / CHOLESTEROL / CREATINE PHOSPHOKINASE / CREATININE / GLUCOSE / LACTATE DEHYDROGENASE / LIPASE / PHOSPHORUS / POTASSIUM / SODIUM / TOTAL BILIRUBIN / TOTAL PROTEIN / URIC ACID: tissue Plasma
[1] = 0 mg/kg, 72 h, dose level Control, time 3 day
[2] = 0 mg/kg, 120 h, dose level Control, time 5 day
[3] = 54 mg/kg, 72 h, dose level Low, time 3 day
[4] = 54 mg/kg, 120 h, dose level Low, time 5 day

## CC(C)Cc1ccc(C(C)C(=O)O)cc1 (configuration not stated) [IBUPROFEN]
[1]
  ABSOLUTE BASOPHIL: 0 CELLS/uL
  ABSOLUTE EOSINOPHIL: 0 CELLS/uL
  ABSOLUTE LYMPHOCYTE: 7601 CELLS/uL
  ABSOLUTE MONOCYTE: 354.33 CELLS/uL
  ABSOLUTE SEGMENTED NEUTROPHIL: 744.67 CELLS/uL
  BASOPHIL: 0%
  EOSINOPHIL: 0%
  ERYTHROCYTE COUNT: 5.03 x10E6/uL
  HEMATOCRIT: 33.7%
  HEMOGLOBIN: 13.43 G/DL
  LEUKOCYTE COUNT: 8.7 x10E3/uL
  LYMPHOCYTE: 86.33%
  MEAN CORPUSCULAR HEMOGLOBIN: 26.7 pg
  MEAN CORPUSCULAR HEMOGLOBIN CONCENTRATION: 39.83 G/DL
  MONOCYTE: 4.67%
  NEUTROPHIL: 9%
  NUCLEATED RED BLOOD CELLS: 0 /100WBC
  PLATELET COUNT: 1151 x10E3/uL
  ALANINE AMINOTRANSFERASE: 97.67 u/L
  ALBUMIN: 4.07 G/DL
  ALKALINE PHOSPHATASE: 607.67 u/L
  ASPARTATE AMINOTRANSFERASE: 101 u/L
  BLOOD UREA NITROGEN: 13.33 mg/dL
  CARBON DIOXIDE: 36 mmol/L
  CHLORIDE: 99.67 MEQ/L
  CHOLESTEROL: 75.67 mg/dL
  CREATINE PHOSPHOKINASE: 279.67 u/L
  CREATININE: 0.16 mg/dL
  GLUCOSE: 164 mg/dL
  LACTATE DEHYDROGENASE: 115 u/L
  LIPASE: 12.67 u/L
  PHOSPHORUS: 8.77 mg/dL
  POTASSIUM: 5.79 MEQ/L
  SODIUM: 142.83 MEQ/L
  TOTAL BILIRUBIN: 0.27 mg/dL
  TOTAL PROTEIN: 5.8 G/DL
  URIC ACID: 0.67 mg/dL
[2]
  ABSOLUTE BASOPHIL: 0 CELLS/uL
  ABSOLUTE EOSINOPHIL: 0 CELLS/uL
  ABSOLUTE LYMPHOCYTE: 4426.33 CELLS/uL
  ABSOLUTE MONOCYTE: 102.67 CELLS/uL
  ABSOLUTE SEGMENTED NEUTROPHIL: 337.67 CELLS/uL
  BASOPHIL: 0%
  EOSINOPHIL: 0%
  ERYTHROCYTE COUNT: 5.31 x10E6/uL
  HEMATOCRIT: 32.5%
  HEMOGLOBIN: 13.17 G/DL
  LEUKOCYTE COUNT: 4.87 x10E3/uL
  LYMPHOCYTE: 90.33%
  MEAN CORPUSCULAR HEMOGLOBIN: 24.93 pg
  MEAN CORPUSCULAR HEMOGLOBIN CONCENTRATION: 40.67 G/DL
  MONOCYTE: 2.33%
  NEUTROPHIL: 7.33%
  NUCLEATED RED BLOOD CELLS: 0.33 /100WBC
  PLATELET COUNT: 848.33 x10E3/uL
  ALANINE AMINOTRANSFERASE: 59.67 u/L
  ALBUMIN: 3.87 G/DL
  ALKALINE PHOSPHATASE: 452 u/L
  ASPARTATE AMINOTRANSFERASE: 81.33 u/L
  BLOOD UREA NITROGEN: 13.67 mg/dL
  CARBON DIOXIDE: 26.33 mmol/L
  CHLORIDE: 103.67 MEQ/L
  CHOLESTEROL: 65.67 mg/dL
  CREATINE PHOSPHOKINASE: 355.33 u/L
  CREATININE: 0.14 mg/dL
  GLUCOSE: 171.33 mg/dL
  LACTATE DEHYDROGENASE: 118 u/L
  LIPASE: 11.33 u/L
  PHOSPHORUS: 11.13 mg/dL
  POTASSIUM: 5.18 MEQ/L
  SODIUM: 143.17 MEQ/L
  TOTAL BILIRUBIN: 0.2 mg/dL
  TOTAL PROTEIN: 5.87 G/DL
  URIC ACID: 0.63 mg/dL
[3]
  ABSOLUTE BASOPHIL: 0 CELLS/uL
  ABSOLUTE EOSINOPHIL: 0 CELLS/uL
  ABSOLUTE LYMPHOCYTE: 9143 CELLS/uL
  ABSOLUTE MONOCYTE: 146.33 CELLS/uL
  ABSOLUTE SEGMENTED NEUTROPHIL: 1110.67 CELLS/uL
  BASOPHIL: 0%
  EOSINOPHIL: 0%
  ERYTHROCYTE COUNT: 5.12 x10E6/uL
  HEMATOCRIT: 32.67%
  HEMOGLOBIN: 12.97 G/DL
  LEUKOCYTE COUNT: 10.4 x10E3/uL
  LYMPHOCYTE: 88%
  MEAN CORPUSCULAR HEMOGLOBIN: 25.37 pg
  MEAN CORPUSCULAR HEMOGLOBIN CONCENTRATION: 39.7 G/DL
  MONOCYTE: 1.33%
  NEUTROPHIL: 10.67%
  NUCLEATED RED BLOOD CELLS: 0 /100WBC
  PLATELET COUNT: 1145.67 x10E3/uL
  ALANINE AMINOTRANSFERASE: 89.33 u/L
  ALBUMIN: 4 G/DL
  ALKALINE PHOSPHATASE: 470.33 u/L
  ASPARTATE AMINOTRANSFERASE: 89.33 u/L
  BLOOD UREA NITROGEN: 14.33 mg/dL
  CARBON DIOXIDE: 40.33 mmol/L
  CHLORIDE: 98 MEQ/L
  CHOLESTEROL: 76.67 mg/dL
  CREATINE PHOSPHOKINASE: 208.67 u/L
  CREATININE: 0.13 mg/dL
  GLUCOSE: 160.67 mg/dL
  LACTATE DEHYDROGENASE: 55 u/L
  LIPASE: 10.67 u/L
  PHOSPHORUS: 9.53 mg/dL
  POTASSIUM: 5.26 MEQ/L
  SODIUM: 143.43 MEQ/L
  TOTAL BILIRUBIN: 0.2 mg/dL
  TOTAL PROTEIN: 5.9 G/DL
  URIC ACID: 0.37 mg/dL
[4]
  ABSOLUTE BASOPHIL: 0 CELLS/uL
  ABSOLUTE EOSINOPHIL: 0 CELLS/uL
  ABSOLUTE LYMPHOCYTE: 9058.67 CELLS/uL
  ABSOLUTE MONOCYTE: 185 CELLS/uL
  ABSOLUTE SEGMENTED NEUTROPHIL: 289.67 CELLS/uL
  BASOPHIL: 0%
  EOSINOPHIL: 0%
  ERYTHROCYTE COUNT: 5.22 x10E6/uL
  HEMATOCRIT: 32.87%
  HEMOGLOBIN: 13 G/DL
  LEUKOCYTE COUNT: 9.53 x10E3/uL
  LYMPHOCYTE: 95.33%
  MEAN CORPUSCULAR HEMOGLOBIN: 24.87 pg
  MEAN CORPUSCULAR HEMOGLOBIN CONCENTRATION: 39.57 G/DL
  MONOCYTE: 1.67%
  NEUTROPHIL: 3%
  NUCLEATED RED BLOOD CELLS: 0 /100WBC
  PLATELET COUNT: 1110.33 x10E3/uL
  ALANINE AMINOTRANSFERASE: 65.67 u/L
  ALBUMIN: 3.9 G/DL
  ALKALINE PHOSPHATASE: 301 u/L
  ASPARTATE AMINOTRANSFERASE: 84.67 u/L
  BLOOD UREA NITROGEN: 12.67 mg/dL
  CARBON DIOXIDE: 28.67 mmol/L
  CHLORIDE: 103.67 MEQ/L
  CHOLESTEROL: 69.67 mg/dL
  CREATINE PHOSPHOKINASE: 213.67 u/L
  CREATININE: 0.23 mg/dL
  GLUCOSE: 164 mg/dL
  LIPASE: 11 u/L
  PHOSPHORUS: 11.1 mg/dL
  POTASSIUM: 5.49 MEQ/L
  SODIUM: 144.2 MEQ/L
  TOTAL BILIRUBIN: 0.13 mg/dL
  TOTAL PROTEIN: 5.87 G/DL
  URIC ACID: 0.57 mg/dL
